Data reported in patent US20200383985A1, “Inhibitors of Protease Activated Receptor-2” (Endosome Therapeutics, Inc., priority 2017, published 2020).
Read-outs that look alike come from different tables or passages of the source.

Columns and labels:
[1] = biological target: T1, human (h) PAR2 (Homo sapiens, UniProt P55085); experiment: IP1 accumulation assay in KNRK-hPAR2 cells; format: cell-based; conditions: 100 nM 2F; 30 μM of antagonist; read-out: KNRK-PAR2 100 nM 2F: ND (inhibition of 2F at 30 μM of antagonist)
T1 construct: expressed in transfected cells; host or cells: KNRK cells (KNRK-hPAR2)
T1 sequence (P55085 26-397): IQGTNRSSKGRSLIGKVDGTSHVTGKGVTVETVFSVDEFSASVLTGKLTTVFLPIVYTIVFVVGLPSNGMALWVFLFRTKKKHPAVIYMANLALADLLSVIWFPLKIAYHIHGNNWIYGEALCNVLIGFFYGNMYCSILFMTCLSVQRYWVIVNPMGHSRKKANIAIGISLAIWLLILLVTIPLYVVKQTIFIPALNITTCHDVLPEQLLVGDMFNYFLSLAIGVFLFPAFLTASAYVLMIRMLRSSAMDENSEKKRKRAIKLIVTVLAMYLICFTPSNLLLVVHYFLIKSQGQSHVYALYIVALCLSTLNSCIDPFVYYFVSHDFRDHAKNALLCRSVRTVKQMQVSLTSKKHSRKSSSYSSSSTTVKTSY
Experimental: (§1) KNRK-hPAR2, KNRK or HT-29 cells were seeded at a density of 50×10^3 cells/well in a clear poly-d-lysine coated 96 well tissue culture plate. Following 24 h incubation at 37° C. and 5% CO2, media was removed and replaced with 80 μl IP1 stimulation buffer (10 mM HEPES, 1 mM CaCl2, 0.5 mM MgCl2, 4.2 mM KCl, 146 mM NaCl, 5.5 mM glucose, 50 mM LiCl). Following stimulation buffer addition, the wells received 10 μl of 10× antagonists or DMSO vehicle. All plates were further incubated at 37° C., 5% CO2 for 30 min. 10 μl of 2F or ATP was added to the plates and further incubated for 40 min. Following incubation, stimulation buffer was quickly removed by aspiration and replaced with 25 μl lysis buffer (IP-One HTRF® assay kit, Cisbio). Following incubation of the lysates at 37° C., 5% CO2 for 10′, 10 μl lysate was transferred to a 384-well OptiPlate (PerkinElmer) and detected using the IP-One HTRF® assay kit (Cisbio).
(§2) Compounds of the invention (added at 10×concentrations in a 10 μL volume) were incubated for 30 min prior to the addition of 10 μM ATP or 100 nM or 300 nM PAR2 agonist (2F; EC80, added at 10×concentrations in a 10 μL volume) and then further incubated for 40 min. After lysis, the inositol phosphate 1 was quantified with IP-One HTRF® assay kit, Cisbio. The data was analysed with Prism, GraphPad to calculate the IC50 values, shown below in Table 1.
(§3) Inhibition of PAR2 signaling with known PAR2 inhibitor I-343 (FIG. 14A) was investigated in HT-29 cells and HEK293 cells, which express endogenous PAR2, and in KNRK cells expressing human (h) PAR2. Accumulation of inositol phosphate-1 (IP1) was measured in response to the PAR2-selective agonist 2-Furoyl-LIGRLO-NH2 (2F), an analogue of the trypsin-exposed tethered ligand, or trypsin.
(§4) KNRK-hPAR2, KNRK, HEK293, or HT-29 cells were seeded at a density of 50×10^3 cells/well onto clear 96-well plates (PerkinElmer). After 24 h of culture, medium was replaced with IP1 stimulation buffer (10 mM HEPES, 1 mM CaCl2, 0.5 mM MgCl2, 4.2 mM KCl, 146 mM NaCl, 5.5 mM glucose, 50 mM LiCl; 37° C., 5% CO2.). Cells were pre-incubated with the antagonist or vehicle for 30 min prior to the addition of agonist. Cells were then further incubated for 40 min. Stimulation buffer was […]

[2] = biological target: T2, PAR2 (Homo sapiens, UniProt P55085); experiment: IP1 accumulation assay in HT-29 cells (endogenous PAR2); format: cell-based; conditions: 2F (300 nM)-induced IP1, HT-29 cells
T2 construct: HT-29 cells and HEK293 cells, which express endogenous PAR2; endogenous in cells; host or cells: HT-29
T2 sequence (P55085 26-397): T1 sequence (P55085 26-397)
Experimental: as §1, §2, §3, §4

[3] = read-out: HT-29 300 nM 2F pIC50 ± SEM (converted)
[4] = read-out: HT-29 300 nM 2F (IC50)

SMILES	inhibition at 30 µM [1] [%]	IC50 [2, 3] [nM]	IC50 [2, 4] [nM]
CC(C)(C)c1cc(-c2ccc(F)cc2)cc2nc(C(=O)N3CCN(C(=O)CCC(=O)NC[C@H](O)[C@@H](O)[C@H](O)[C@H](O)CO)CC3(C)C)oc12 [Compound 4, 4-(4-(7-(tert-butyl)-5-(4-fluorophenyl)benzo[d]oxazole-2-carbonyl)-3,3-dimethylpiperazin-1-yl)-4-oxo-N-((2S,3R,4R,5R)-2,3,4,5,6-pentahydroxyhexyl)butanamide]	< 50	> 10000	–
CCCCCCCCCCCCCCCCNC(=O)C[C@H](NC(=O)CCOCCOCCOCCOCCOCCOCCOCCOCCOCCOCCOCCOCCNC(=O)Cn1cc(C(=O)N2CCN(C(=O)c3cn4nc(-c5ccc(F)cc5)cc(C(C)(C)C)c4n3)C(C)(C)C2)nn1)C(N)=O [Compound 15, (S)-3-(1-(4-(4-(8-(tert-butyl)-6-(4-fluorophenyl)imidazo[1,2-b]pyridazine-2-carbonyl)-3,3-dimethylpiperazine-1-carbonyl)-1H-1,2,3-triazol-1-yl)-2-oxo-6,9,12,15,18,21,24,27,30,33,36,39-dodecaoxa-3-azadotetracontan-42-amido)-N1-hexadecylsuccinamide]	< 50	47.2	–
CC(C)(C)c1cc(-c2ccc(F)cc2)nn2cc(C(=O)N3CCN(C(=O)c4cn(CC(=O)NCCOCCOCCOCCOCCOCCO)nn4)CC3(C)C)nc12 [Compound 6, 2-(4-(4-(8-(tert-butyl)-6-(4-fluorophenyl)imidazo[1,2-b]pyridazine-2-carbonyl)-3,3-dimethylpiperazine-1-carbonyl)-1H-1,2,3-triazol-1-yl)-N-(17-hydroxy-3,6,9,12,15-pentaoxaheptadecyl)acetamide]	< 50	–	971
CC(C)CCC[C@@H](C)[C@H]1CC[C@H]2[C@@H]3CCC4CC(OC(=O)C[C@H](NC(=O)CCOCCOCCOCCOCCOCCOCCNC(=O)[C@H](CCCNC(=N)N)NC(=O)CCOCCOCCOCCOCCOCCOCCNC(=O)Cn5cc(C(=O)N6CCN(C(=O)c7cn8nc(-c9ccc(F)cc9)cc(C(C)(C)C)c8n7)C(C)(C)C6)nn5)C(N)=O)CC[C@]4(C)[C@H]3CC[C@]12C (stereo partly drawn) [Compound 14]	< 50	–	1550
CC(C)CCC[C@@H](C)[C@H]1CCC2C3CCC4C[C@@H](OC(=O)C[C@H](NC(=O)CCOCCOCCOCCOCCNC(=O)Cn5cc(C(=O)N6CCN(C(=O)c7cn8nc(-c9ccc(F)cc9)cc(C(C)(C)C)c8n7)C(C)(C)C6)nn5)C(N)=O)CC[C@]4(C)C3CC[C@@]21C (stereo partly drawn) [Compound 11, (3S,10S,13R,17R)-10,13-dimethyl-17-((R)-6-methylheptan-2-yl)hexadecahydro-1H-cyclopenta[a]phenanthren-3-yl (20S)-1-(4-(4-(8-(tert-butyl)-6-(4-fluorophenyl)imidazo[1,2-b]pyridazine-2-carbonyl)-3,3-dimethylpiperazine-1-carbonyl)-1H-1,2,3-triazol-1-yl)-20-carbamoyl-2,18-dioxo-6,9,12,15-tetraoxa-3,19-diazadocosan-22-oate]	< 50	–	970
CC(C)(C)c1cc(-c2ccc(F)cc2)nn2cc(C(=O)N3CCN(C(=O)CCS(=O)(=O)O)CC3(C)C)nc12 [Compound 1, 3-(4-(8-(tert-butyl)-6-(4-fluorophenyl)imidazo[1,2-b]pyridazine-2-carbonyl)-3,3-dimethylpiperazin-1-yl)-3-oxopropane-1-sulfonic acid]	< 50	–	5900
